Where “and” joins values, the source holds several entries; their conditions need not be identical. Equal values may be shown once. Entries after “also recorded” stand apart in the source; their conditions may differ.
What was measured:
5-HT1A receptor = biological target: T1, 5-HT1A receptor (Homo sapiens, UniProt P08908); assay: cAMP-Glo assay of 5-HT1A receptor modulation in CHO-K1/5-HT1A/Ga15 cells; type: cell-based; details: +5-HT1A vs −5-HT1A cells, 4 mM forskolin, increasing ligand concentrations
T1 construct: host or cells: CHO-K1 (co-expressing Ga15)
T1 sequence (P08908 1-422): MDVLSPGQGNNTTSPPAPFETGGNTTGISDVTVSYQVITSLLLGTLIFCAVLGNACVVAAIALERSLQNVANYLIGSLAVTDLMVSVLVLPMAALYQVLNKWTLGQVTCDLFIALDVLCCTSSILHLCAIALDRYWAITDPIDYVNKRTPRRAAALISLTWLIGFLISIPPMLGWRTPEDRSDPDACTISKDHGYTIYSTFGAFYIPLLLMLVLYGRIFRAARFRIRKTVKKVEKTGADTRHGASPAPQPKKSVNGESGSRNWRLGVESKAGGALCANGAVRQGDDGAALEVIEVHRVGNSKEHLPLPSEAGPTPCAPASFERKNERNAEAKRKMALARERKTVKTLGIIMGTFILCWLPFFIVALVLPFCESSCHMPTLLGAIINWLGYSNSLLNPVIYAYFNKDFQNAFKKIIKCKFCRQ

5-HT2A receptor = biological target: T2, 5-HT2A receptor (Mus musculus, UniProt P35363); assay: Drug-induced Head Twitch Response (HTR) in mice; type: in vivo, C57BL/6-Elite mice; details: 1 mg/kg i.p.; for Head Twitch Response (HTR): 15-to-30-minute window post-drug, relative to vehicle
T2 construct: tissue Charles River; host or cells: living C57BL/6-Elite mice (brain, in vivo)

AVPR1A = AVPR1A (Homo sapiens, UniProt P37288); assay: SAFETYscan calcium secondary messenger assay, AVPR1A; type: cell-based
MAO-A = biological target: T3, MAO-A (Homo sapiens, UniProt P21397); assay: SAFETYscan MAO-A enzyme assay; type: biochemical
T3 construct: purchased Sigma
T3 sequence (P21397 1-527): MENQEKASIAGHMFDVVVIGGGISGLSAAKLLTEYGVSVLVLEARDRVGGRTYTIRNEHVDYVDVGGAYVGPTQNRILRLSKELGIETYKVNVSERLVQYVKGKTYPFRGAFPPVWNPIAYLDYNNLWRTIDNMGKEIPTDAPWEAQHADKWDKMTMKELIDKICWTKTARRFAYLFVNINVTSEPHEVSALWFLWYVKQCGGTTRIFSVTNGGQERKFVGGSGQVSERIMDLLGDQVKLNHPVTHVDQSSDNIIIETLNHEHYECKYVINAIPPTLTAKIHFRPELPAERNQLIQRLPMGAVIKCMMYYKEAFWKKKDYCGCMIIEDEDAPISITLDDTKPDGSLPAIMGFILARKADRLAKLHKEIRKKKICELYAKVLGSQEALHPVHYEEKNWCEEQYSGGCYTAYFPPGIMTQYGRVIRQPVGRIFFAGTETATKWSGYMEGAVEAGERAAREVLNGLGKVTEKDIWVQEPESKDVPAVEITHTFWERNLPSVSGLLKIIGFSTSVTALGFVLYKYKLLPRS

[1] = Mouse PK study: plasma parent compound and psilocin metabolite after dosing of the labelled compound; details: for Plasma concentration of E(VI) / AUC0-tlast/Dose of E(VI) / Plasma concentration of psilocybin: 1 mg/kg i.v.
[2] = In vitro metabolic stability / psilocin release assays (liver, intestinal, serum fractions, buffer)
[3] = 3 mg/kg oral, 24 h, individual mice, BLQ = below 0.2 ng/mL
[4] = oral doses, any dose / timepoint

T2 sequence (P35363 whole entry): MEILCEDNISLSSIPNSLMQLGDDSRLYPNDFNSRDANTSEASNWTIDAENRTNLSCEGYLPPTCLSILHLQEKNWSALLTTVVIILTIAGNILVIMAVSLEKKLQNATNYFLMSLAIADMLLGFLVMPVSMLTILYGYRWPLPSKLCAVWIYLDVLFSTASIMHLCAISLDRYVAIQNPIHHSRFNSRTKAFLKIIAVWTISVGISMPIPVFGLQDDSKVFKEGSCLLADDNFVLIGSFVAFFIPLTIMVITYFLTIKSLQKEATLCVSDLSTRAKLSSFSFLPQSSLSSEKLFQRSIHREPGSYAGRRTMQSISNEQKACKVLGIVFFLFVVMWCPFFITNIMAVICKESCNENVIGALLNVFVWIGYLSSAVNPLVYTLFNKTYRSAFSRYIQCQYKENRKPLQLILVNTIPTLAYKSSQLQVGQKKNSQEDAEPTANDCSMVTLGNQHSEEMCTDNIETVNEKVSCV
AVPR1A, sequence (P37288 whole entry): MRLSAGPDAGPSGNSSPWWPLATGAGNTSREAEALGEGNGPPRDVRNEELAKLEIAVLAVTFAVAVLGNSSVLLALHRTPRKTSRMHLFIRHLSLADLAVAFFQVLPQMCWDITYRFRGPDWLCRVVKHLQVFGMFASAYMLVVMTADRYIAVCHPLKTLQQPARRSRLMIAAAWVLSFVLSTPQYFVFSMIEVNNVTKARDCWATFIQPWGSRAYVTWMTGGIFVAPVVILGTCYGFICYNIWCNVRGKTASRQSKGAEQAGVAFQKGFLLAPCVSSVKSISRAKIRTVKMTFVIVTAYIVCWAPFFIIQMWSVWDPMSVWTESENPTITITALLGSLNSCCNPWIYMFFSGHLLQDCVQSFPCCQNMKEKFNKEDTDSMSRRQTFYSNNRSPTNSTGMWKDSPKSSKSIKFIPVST

N[C@@H](Cc1c[nH]c2ccccc12)C(=O)O [tryptophan]
5-HT1A receptor modulation (change in % cAMP) (5-HT1A receptor): no reduction in cellular cAMP levels

CN(C)CCc1c[nH]c2cccc(OC(=O)SCc3ccccc3)c12 [E(VI)]
5-HT1A receptor modulation (change in % cAMP) (5-HT1A receptor): mild receptor modulation at higher ligand concentrations
Head Twitch Response (HTR) (5-HT2A receptor): Elevated incidences of HTR; also recorded: elicit head twitching
HTR of E(VI) compared to B(II) (5-HT2A receptor; side-by-side (FIG. 4F)): elevated response
IC50 (AVPR1A): > 10 µM
IC50 (MAO-A): > 10 µM
Plasma concentration of E(VI) ([1]; 5 min, individual mice, concentrations not considered accurate): 3.20 ng/mL and 59.0 ng/mL and 11.1 ng/mL
Plasma concentration of E(VI) ([1]; 5 min, mean ± SD, concentrations not considered accurate): 24.4 ± 30.2 ng/mL
Plasma concentration of E(VI) ([1]; 0.25 h, individual mice, concentrations not considered accurate): 72.1 ng/mL and 110 ng/mL and 7.79 ng/mL
Plasma concentration of E(VI) ([1]; 0.25 h, mean ± SD, concentrations not considered accurate): 63.3 ± 51.7 ng/mL
Plasma concentration of E(VI) ([1]; 0.5 h, individual mice, concentrations not considered accurate): 13.1 ng/mL and 9.29 ng/mL and 1.03 ng/mL
Plasma concentration of E(VI) ([1]; 0.5 h, mean ± SD, concentrations not considered accurate): 7.81 ± 6.17 ng/mL
Plasma concentration of E(VI) ([1]; 1 h, individual mice, concentrations not considered accurate): 3.14 ng/mL and 5.84 ng/mL and No Peak
Plasma concentration of E(VI) ([1]; 1 h, mean, concentrations not considered accurate): 4.49 ng/mL
Plasma concentration of E(VI) ([1]; 2 h, individual mice, values below LLOQ 1 ng/mL included): 0.776 ng/mL and 0.594 ng/mL and No Peak
Plasma concentration of E(VI) ([1]; 2 h, mean, concentrations not considered accurate): 0.685 ng/mL
Plasma concentration of E(VI) ([1]; 4 h, individual mice, BLQ = below 1 ng/mL): BLQ (2×) and No Peak
Plasma concentration of E(VI) ([1]; 6 h, individual mice, BLQ = below 1 ng/mL): No Peak (2×) and BLQ
Plasma concentration of E(VI) ([1]; 8 h, individual mice): No Peak
AUC0-tlast/Dose of E(VI) ([1]; individual mice): 20.4 kg·ng·h/mL/mg and 35.2 kg·ng·h/mL/mg and 3.40 kg·ng·h/mL/mg
AUC0-tlast/Dose of E(VI) ([1]; mean ± SD): 19.7 ± 15.9 kg·ng·h/mL/mg
detection of parent compound in plasma after oral administration ([1]; 1 mg/kg oral): neither B(II) nor E(VI) were detected in plasma
Plasma concentration of psilocin ([1]; 1 mg/kg oral, 8 h, individual mice, BLQ = below 0.2 ng/mL): BLQ
Plasma concentration of psilocin [1, 3]: No Peak (2×) and BLQ
Plasma concentration of psilocin ([1]; 10 mg/kg oral, 24 h, individual mice, BLQ = below 0.2 ng/mL): BLQ
detection of parent compound in plasma after oral administration [1, 4]: did not yield any detectable levels of E(VI); also recorded: never detected at any timepoint

NCCc1c[nH]c2ccc(O)cc12 [serotonin]
5-HT1A receptor modulation (change in % cAMP) (5-HT1A receptor): reduction in cAMP levels

CN(C)CCc1c[nH]c2cccc(O)c12 [psilocin]
5-HT1A receptor modulation (change in % cAMP) (5-HT1A receptor): reduction in cAMP levels

CN(C)CCc1c[nH]c2cccc(OP(=O)(O)O)c12 [psilocybin]
stability ([2]; assay buffer (enzyme-free control)): stability of psilocybin was confirmed in assay buffer
stability and conversion to psilocin ([2]; liver fractions (HLM, HLS9)): stable in liver fractions with no conversion to psilocin
Plasma concentration of psilocybin ([1]; 0.5 h, individual mice, No Peak = no detectable compound by LC-MS): No Peak and 2.35 ng/mL and 6.21 ng/mL
Plasma concentration of psilocybin ([1]; 0.5 h, mean): 4.28 (n = 2) ng/mL
Plasma concentration of psilocybin ([1]; 1 h, individual mice, No Peak = no detectable compound by LC-MS): No Peak (2×) and 1.21 ng/mL
Plasma concentration of psilocybin ([1]; 1 h, mean): 1.21 (n = 1) ng/mL
Plasma concentration of psilocybin ([1]; 2 h, individual mice, No Peak = no detectable compound by LC-MS): No Peak
Plasma concentration of psilocybin ([1]; 4 h, individual mice, No Peak = no detectable compound by LC-MS): No Peak
Plasma concentration of psilocybin ([1]; 6 h, individual mice, No Peak = no detectable compound by LC-MS): No Peak
Plasma concentration of psilocybin ([1]; 8 h, individual mice, No Peak = no detectable compound by LC-MS, bolded value considered an outlier): No Peak (2×) and 2.54 ng/mL
Plasma concentration of psilocin ([1]; 1.56 mg/kg oral, 24 h, individual mice, BLQ = below 0.2 ng/mL): BLQ
Plasma concentration of psilocin [1, 3]: BLQ
detection of parent compound in plasma after oral administration [1, 4]: not detectable in orally administered animals at any dose

CN(C)CCc1c[nH]c2cccc(OC(=O)OCc3ccccc3)c12 [B(II)]
Head Twitch Response (HTR) (5-HT2A receptor): elicit head twitching
dissociation to psilocin ([2]; HLM, HLS9, HIM, HIS9, AB serum, buffer control (any conditions)): did not readily dissociate to psilocin under any conditions
detection of parent compound in plasma after oral administration ([1]; 1 mg/kg oral): neither B(II) nor E(VI) were detected in plasma
Plasma concentration of psilocin ([1]; 1 mg/kg oral, 0.25 h, mean ± SD): 19.7 ± 5.50 ng/mL
Plasma concentration of psilocin ([1]; 1 mg/kg oral, 0.5 h, mean ± SD): 11.9 ± 2.03 ng/mL
Plasma concentration of psilocin ([1]; 1 mg/kg oral, 1 h, mean ± SD): 4.63 ± 0.788 ng/mL
Plasma concentration of psilocin ([1]; 1 mg/kg oral, 2 h, mean ± SD): 2.20 ± 0.850 ng/mL
Plasma concentration of psilocin ([1]; 1 mg/kg oral, 4 h, mean ± SD): 2.05 ± 0.359 ng/mL
Plasma concentration of psilocin ([1]; 1 mg/kg oral, 6 h, mean ± SD): 0.739 ± 0.288 ng/mL
Plasma concentration of psilocin ([1]; 1 mg/kg oral, 8 h, mean ± SD): 0.453 ± 0.0460 ng/mL
Cmax/Dose of psilocin ([1]; 1 mg/kg oral, dose of administered compound used, mean ± SD): 19.7 ± 5.50 kg·ng/mL/mg
Plasma concentration of psilocin ([1]; 3 mg/kg oral, 0.25 h, mean ± SD): 55.6 ± 8.67 ng/mL
Plasma concentration of psilocin ([1]; 3 mg/kg oral, 0.5 h, mean ± SD): 32.3 ± 4.98 ng/mL
Plasma concentration of psilocin ([1]; 3 mg/kg oral, 1 h, mean ± SD): 9.29 ± 3.05 ng/mL
Plasma concentration of psilocin ([1]; 3 mg/kg oral, 2 h, mean ± SD): 7.67 ± 0.921 ng/mL
Plasma concentration of psilocin ([1]; 3 mg/kg oral, 4 h, mean ± SD): 6.76 ± 2.13 ng/mL
Plasma concentration of psilocin ([1]; 3 mg/kg oral, 6 h, mean ± SD): 2.41 ± 0.845 ng/mL
Plasma concentration of psilocin ([1]; 3 mg/kg oral, 8 h, mean ± SD): 0.722 ± 0.368 ng/mL
AUC0-tlast/Dose of psilocin ([1]; 3 mg/kg oral, dose of administered compound used, mean ± SD): 20.3 ± 2.78 kg·ng·h/mL/mg
time parent compound resides in plasma post-dosing ([1]; 10 mg/kg oral): up to 4 hours
Plasma concentration of psilocin ([1]; 10 mg/kg oral, 0.25 h, mean ± SD): 306 ± 34.6 ng/mL
Plasma concentration of psilocin ([1]; 10 mg/kg oral, 0.5 h, mean ± SD): 125 ± 16.3 ng/mL
Plasma concentration of psilocin ([1]; 10 mg/kg oral, 1 h, mean ± SD): 49.6 ± 10.5 ng/mL
Plasma concentration of psilocin ([1]; 10 mg/kg oral, 2 h, mean ± SD): 20.7 ± 1.42 ng/mL
Plasma concentration of psilocin ([1]; 10 mg/kg oral, 4 h, mean ± SD): 31.4 ± 6.34 ng/mL
Plasma concentration of psilocin ([1]; 10 mg/kg oral, 6 h, mean ± SD): 11.5 ± 1.43 ng/mL
Plasma concentration of psilocin ([1]; 10 mg/kg oral, 8 h, mean ± SD): 6.38 ± 2.98 ng/mL
Cmax/Dose of psilocin ([1]; 10 mg/kg oral, dose of administered compound used, mean ± SD): 30.6 ± 3.46 kg·ng/mL/mg
psilocin levels / exposure compared with E(VI)-treated mice ([1]; oral dosing, Tables 16 and 17): higher psilocin levels

— patent US20250206701A1
